Measurements reported in EP4653001A1, “TREATMENT, DIAGNOSIS AND/OR PROGNOSIS OF MITOCHONDRIAL DISEASES” (Universidad Autónoma de Madrid, priority 2024, dated 2025).

Columns and labels:
[1] = tested on: mouse cortical neurons; assay: ATP measurement in neurons (ATP Assay Kit); format: cell-based; conditions: CI-inhibited neurons, 100 nM, 24 h
Method: Primary cultures of C57BL/6 mouse cortical neurons were prepared from embryos between embryonic days 16.5 and 17.5 and seeded onto pre-treated plates coated with Poly-L-lysine hydrobromide (500 µg/ml). We used Neurobasal medium without D-glucose and sodium pyruvate (ThermoFisher) to modulate D-glucose levels, depending on the experiment (2.5 mM, 5 mM, or 25 mM).
In standard experiments, we utilized Neurobasal medium with 25 mM D-glucose, 1 mM sodium pyruvate (ThermoFisher), B27 plus supplement (GIBCO), GlutaMax I 100X (GIBCO), and 1% penicillin/streptomycin (P/S). Starting from day 6 in vitro (DIV6), half of the medium was replaced every 3-4 days, omitting GlutaMax I.
(§1) ATP Assay Kit (Abcam, #ab83355) was used to analyze ATP levels. Briefly, Cells were seeded in M24 plates (neurons at 500,000 cells/mL and monolayer density for astrocytes), and for the ATP experiments, three wells per condition were combined. An alternative deproteinization protocol was applied to purify the samples, and a Colorimetric Assay was conducted as outlined in the original protocol. The measurements were obtained using the CLARIOstar Plus plate reader from BMG LABTECH.

[2] = tested on: astrocytes; assay: ATP measurement in astrocytes (ATP Assay Kit); format: cell-based, mouse; conditions: 100 nM, 24 h
Method: Primary cultures of C57BL/6 mouse cortical astrocytes were derived from postnatal day 2-3 pups. They were plated on pre-treated dishes coated with Poly-L-lysine (100 µg/ml) and cultured in DMEM/F-12 (ThermoFisher) supplemented with 15% FBS and 1% penicillin/streptomycin (P/S). After 24 hours of plating, the medium was switched to 10% FBS.
as §1

[3] = tested on: mouse primary astrocytes; assay: Morphology, proliferation and viability of primary astrocytes; format: cell-based
Method: (§2) All cell lines, 143b, HeLa, U2OS, and transmitochondrial cybrids carrying mutation in CI (ND2), CIII (CytB) or CIV (Cox2) subunits, were maintained in DMEM high glucose (HyClone), 10% FBS and 1% P/S at 37°C with 5% CO2. Mitochondrial mutant cells were cultured with supplementation of 50 µg/mL uridine. The selected cancer cell lines with different levels of malic enzyme (HCC15, KYSE410, CAKI1, J82, MDAMB453, Colo320, NCIH1703) were obtained from the DSMZ-German Collection of Microorganisms and Cell Cultures GmbH and cultured in the same DMEM 10% FBS medium. OCI-Lys3 and RCH-ACV cell lines (cells in suspension), were obtained from the same repository and cultured in RPMI 10% FBS medium. Transfections for gain- and loss-of-function studies were performed according to the manufacturer's instructions using the polyfect reagent (Qiagen, 301107). For cell number and proliferation experiments, cells were seeded in 12 or 6-well plates and allowed to proliferate for the specified durations. Subsequently, cells were trypsinized and quantified using a hemocytometer (NanoEnTek, DHC-N01). Cell viability was quantified using propidium iodide (PI; 50 µg/ml) staining.
Primary cultures of C57BL/6 mouse cortical astrocytes were derived from postnatal day 2-3 pups. […]

[4] = tested on: 143B cells; assay: Time-course cell proliferation / survival of 143B cells; format: cell-based; conditions: 143B cells, over the course of 96 h; Piericidin 100 nM, G6PDi 50 uM; combination effect beyond 48 h
Method: as §2, with “For cell number and proliferation experiments, cells were seeded in 12 or 6-well plates and allowed to proliferate for the specified durations.” left out
Next, we conducted time-course experiments to gain further knowledge on the metabolic determinants underlying the observed synthetic lethality between PPP and OXPHOS. 143B cells were treated either with Piericidin or G6PDi (selective inhibitor of G6PD) alone or the combination of both and cell proliferation was quantified over the course of 96 h. […]

[5] = tested on: PC KO and ACLY KO cells; assay: Cell number / viability of PC KO and ACLY KO 143B cells; format: cell-based
Method: as §2
Generation of knockout cell lines using CRISPR-Cas9 technology was performed with the lenti-CRISPR v2 vector (Addgene #52961). Guide sequences are: • sgGFPT1, 5-[…]-3 (SEQ ID NO: 1); • sgG6PD, 5-[…]-3 (SEQ ID NO: 2); • sgPHGDH, 5-[…]-3 (SEQ ID NO: 3); • sgMPC1, 5-[…]-3 (SEQ ID NO: 4) • sgPC, 5-CAGGCCCGGAACACACGGA-3 (SEQ ID NO: 5); • sgACLY, 5-[…]-3 (SEQ ID NO: 6); • sgME1, 5-[…]-3 (SEQ ID NO: 7).
To assess the relative contribution of PC and ACLY to cell death phenotype in ETC deficient cells upon PPP inhibition, we treated PC KO and ACLY KO cells with Piericidin, G6PDi or both. A massive reduction in cell viability was observed as early as 48 h in both PC KO and ACLY KO cells after dual inhibition (Figure 3E), which correlated with a significant decrease in the intracellular levels of malate (Figure 3F). […]

SMILES: CC=C(C)C(O)C(C)C=C(C)C=CCC(C)=CCc1nc(OC)c(OC)c(O)c1C (centres unmarked) [Piericidin, Piericidin A]
- ATP levels [1]: maintained
- ATP levels [2]: did not cause any alteration
- proliferation ([3]; PC and ME1 knockdown astrocytes vs WT controls, 100nM, 96 h): proliferated less
- morphology, proliferation, or overall viability ([3]; mouse primary astrocytes): no discernible impact
- cellular fitness / cell survival [4]: did not cause a substantial decline
- cell death or cell proliferation ([5]; ACLY KO cells): did not translate into increased cell death or impaired cell proliferation
- proliferation ([5]; PC KO cells, 100 nM, 72 h): proliferated normally
- sensitivity to ETC inhibition (cell number) ([5]; double ablation of PC and ACLY, 100 nM, 72 h): sensitize
